Measurements published in patent US6358883B1, “Pesticidal and parasiticidal use of 1-aryl-1-(substituted thio, sulfinyl and sulfonyl)-2-nitroethane compounds” (American Cyanamid Company, priority 1998, dated 2002).

What was measured:
Format in all cases: in vivo
[1] = tested on: Diabrotica virgifera virgifera Leconte, 2nd instar western corn rootworm (WCR); assay: Western corn rootworm (WCR) soil test; parameters: key: 0 = no effect; 1 = 10-25% kill; 2 = 26-35% kill; 3 = 36-45% kill; 4 = 46-55% kill; 5 = 56-65% kill; 6 = 66-75% kill; 7 = 76-85% kill; 8 = 86-99% kill; 9 = 100% kill
How it was run: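 Ten 2nd-instar rootworm larvae are placed in jars of moist soil with millet seed and talc treated with 1.25 mg active ingredient (roughly 50 kg/ha) from a 35% acetone-in-water solution. After 5 days mortality is scored, counting missing larvae as dead.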

[2] = tested on: Diabrotica undecimpunctata howardi, eggs-southern corn rootworm (SCR-Eggs); assay: Southern corn rootworm eggs (SCR-Eggs) treated diet test; parameters: key: 0 = no effect; 1 = 10-25% kill; 2 = 26-35% kill; 3 = 36-45% kill; 4 = 46-55% kill; 5 = 56-65% kill; 6 = 66-75% kill; 7 = 76-85% kill; 8 = 86-99% kill; 9 = 100% kill; conditions: mortality after 7 days
Procedure: (§1) Test solutions are prepared by dissolving the test compound in a 35% acetone in water mixture to give a concentration of 10,000 ppm. Subsequent dilutions are made with water as needed. Spodoptera eridania, Eggs-southern Armyworm and Diabrotica undecimpunctata howardi, Eggs-southern Corn Rootworm (SAW-Eggs) and (SCR-Eggs) Wells containing artificial diet are treated with the test solutions and dried. The appropriate insect eggs are then placed in the wells. The wells are covered with vented, adhesive, clear plastic covers. After 7 days, mortality counts are made. [table]

[3] = tested on: Tetranychus urticae (OP-resistant strain), 2-spotted spider mite (TSM); assay: 2-spotted spider mite (TSM) plant dip test; parameters: key: 0 = no effect; 1 = 10-25% kill; 2 = 26-35% kill; 3 = 36-45% kill; 4 = 46-55% kill; 5 = 56-65% kill; 6 = 66-75% kill; 7 = 76-85% kill; 8 = 86-99% kill; 9 = 100% kill; conditions: mortality after 2 days
How it was run: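 Mortality counted 2 days after a 3 s agitated dip of infested Sieva lima bean plants. Compound came from a 10,000 ppm stock in 35% aqueous acetone, with further dilution in water. Each primary leaf carried about 100 OP-resistant mites, allowed to settle ~2 h before dipping.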

[4] = tested on: Spodoptera eridania, 2nd instar larvae, southern armyworm (SAW); assay: Southern armyworm (SAW) leaf dip test; parameters: key: 0 = no effect; 1 = 10-25% kill; 2 = 26-35% kill; 3 = 36-45% kill; 4 = 46-55% kill; 5 = 56-65% kill; 6 = 66-75% kill; 7 = 76-85% kill; 8 = 86-99% kill; 9 = 100% kill
How it was run: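 Ten 2nd instar caterpillars feed on a Sieva lima bean leaf that was dipped 3 seconds in test solution (stock 10,000 ppm in 35% acetone/water, water-diluted). Five days later, larvae are assessed for death, feeding reduction or abnormal molting.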

[5] = tested on: Spodoptera eridania, eggs-southern armyworm (SAW-Eggs); assay: Southern armyworm eggs (SAW-Eggs) treated diet test; parameters: key: 0 = no effect; 1 = 10-25% kill; 2 = 26-35% kill; 3 = 36-45% kill; 4 = 46-55% kill; 5 = 56-65% kill; 6 = 66-75% kill; 7 = 76-85% kill; 8 = 86-99% kill; 9 = 100% kill; conditions: mortality after 7 days
Procedure: as §1

[6] = tested on: Aphis gossypii, cotton aphid (CA); assay: Cotton aphid (CA) cotyledon dip test; parameters: key: 0 = no effect; 1 = 10-25% kill; 2 = 26-35% kill; 3 = 36-45% kill; 4 = 46-55% kill; 5 = 56-65% kill; 6 = 66-75% kill; 7 = 76-85% kill; 8 = 86-99% kill; 9 = 100% kill; conditions: mortality after 5 days
How it was run: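 Mortality was scored 5 days after dipping aphid-infested cotyledons, colonised overnight from a transfer leaf, into water dilutions of a 35% acetone/water compound solution.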

[7] = tested on: M. incognita (Root Knot Nematode) larvae; assay: Evaluation of test compounds against M. incognita larvae in microtiter plate wells (movement score); conditions: larvae scored for movement after 20-24 hours; note: key: A score of '9' indicates inactive worms with a straight, sticklike morphology; A score of '8' indicates inactive worms with a limp, curled or curved morphology; A score of '7' indicates dead/paralyzed worms after 72 hours
How it was run: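 Scoring is by larval movement: dead or paralyzed worms count as positive, and a "7" means dead/paralyzed at 72 hours. Freshly hatched root-knot larvae (50-65 per well) in buffered S Medium were incubated with compounds under plate sealers for 20-24 h before the first read.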

[8] = tested on: C. elegans (Bristol strain); assay: Evaluation of test compounds against C. elegans (motility, 96-well plate); parameters: key: 9=complete kill in 4 hours; 8=complete kill in 24 hours; 7=markedly reduced motility in approximately 95% of worms in 24 hours; 0=normal motility, same as controls; conditions: motility at 4 and 24 hours
How it was run: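 Activity is a semi-quantitative visual score of adult and larval movement, read at 4 h and 24 h post-immersion at 20 °C after gentle tapping. Worms were suspended in Na buffer in wells where compound, dissolved in 80% acetone, had been evaporated.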

Structure (SMILES)	WCR (50 ppm) rating [1]	SCR Eggs (1000 ppm) rating [2]	TSM (300 ppm) rating [3]	SAW (300 ppm) rating [4]	SAW Eggs (300 ppm) rating [5]	CA (300 ppm) rating [6]	M. incognita (150 ppm) score [7]	Rating Against C. elegans (150 ppm) [8]
O=C(O)CSC(C[N+](=O)[O-])c1cc(Br)cs1 (centres unmarked) [Example 190]	0	0	0	0	0	0		
CCOC(=O)CSC(C[N+](=O)[O-])c1cccs1 (centres unmarked) [Example 183]	0	0	0	0	0	0	9	
O=C(O)CSC(C[N+](=O)[O-])c1ccco1 (centres unmarked) [Example 196]	9 (9 = 100% kill)	0	0	0	0	0	9	
COC(=O)CSC(C[N+](=O)[O-])c1cccc([N+](=O)[O-])c1 (centres unmarked) [Example 138]	0	0	0	0	0	0	0	
O=C(O)CSC(C[N+](=O)[O-])c1cccs1 (centres unmarked) [Example 181]	0	0	0	0	9 (9 = 100% kill)	0	9	
O=C(CSC(C[N+](=O)[O-])c1cccs1)OCc1ccccc1 (centres unmarked) [Example 185]	0	0	0	0	0	0	9	
CCCCOC(=O)CSC(C[N+](=O)[O-])c1ccco1 (centres unmarked) [Example 200]	4 (4 = 46-55% kill)	0	0	0	9 (9 = 100% kill)	0	9	
CCOC(=O)CSC(C[N+](=O)[O-])c1ccc(F)cc1 (centres unmarked) [Example 16]	0		0	0	0	0	9	8
CCCOC(=O)CSC(C[N+](=O)[O-])c1ccco1 (centres unmarked) [Example 199]	8 (8 = 86-99% kill)	0	0	0	9 (9 = 100% kill)	0	9	
O=[N+]([O-])CC(SCc1ccccc1)c1cccs1 (centres unmarked) [Example 188]	3 (3 = 36-45% kill)	0	0	0	0	0	9	
CCCSC(C[N+](=O)[O-])c1cccs1 (centres unmarked) [Example 186]	4 (4 = 46-55% kill)	0	0	4 (4 = 46-55% kill)	0	0	0	
C=CCSC(C[N+](=O)[O-])c1ccco1 (centres unmarked) [Example 202]	9 (9 = 100% kill)	0	0	0	9 (9 = 100% kill)	0	0	
CCCCOC(=O)CSC(C[N+](=O)[O-])c1ccc(F)cc1 (centres unmarked) [Example 17]	0		5 (5 = 56-65% kill)	0	0	0	9	8
O=[N+]([O-])CC(SCc1ccccc1)c1cc(Br)cs1 (centres unmarked) [Example 195]	0	0	0	0	0	0		
CCCSC(C[N+](=O)[O-])c1ccc(F)cc1 (centres unmarked) [Example 14]	0		0	0	0	0	0	0
CC(C)CCCCCOC(=O)CSC(C[N+](=O)[O-])c1ccc(F)cc1 (centres unmarked) [Example 11]	0		0	0	0	0	0	0
CCOC(=O)CSC(C[N+](=O)[O-])c1cc(Br)cs1 (centres unmarked) [Example 192]	0	0	0	0	0	0		
CCCCOC(=O)CSC(C[N+](=O)[O-])c1ccccc1 (centres unmarked) [Example 7]	0		0	0	0	0	9	8
COC(=O)CSC(C[N+](=O)[O-])c1ccc(F)cc1 (centres unmarked) [Example 15]	3 (3 = 36-45% kill)		0	0	0	0	9	9
CCCOC(=O)CSC(C[N+](=O)[O-])c1cc(Br)cs1 (centres unmarked) [Example 193]	0	0	0	0	0	0		
CCCCOC(=O)CSC(C[N+](=O)[O-])c1cc(Br)cs1 (centres unmarked) [Example 194]	0	0	0	0	0	0		
CCCCC(CC)COC(=O)CSC(C[N+](=O)[O-])c1ccc(F)cc1 (centres unmarked) [Example 12]	0		0	0	0	0	0	0
COC(=O)CSC(C[N+](=O)[O-])c1cc(Br)cs1 (centres unmarked) [Example 191]	0	0	0	0	0	0		
